# According to ChEMBL document CHEMBL3046405, “Knockdown of several components of cytochrome P450 enzyme systems by RNA interference enhances the susceptibility of Helicoverpa armigera to fenvalerate” (2012):
# Key:
# Assay type in all cases: functional
# Helicoverpa armigera [1] = test: Insecticidal activity against fenvalerate-resistant Helicoverpa armigera HDFR third-instar larvae injected with dsCYP6B7-313-1 dsRNA plus dsCPR-403-1 dsRNA and dsCyt-b5-4 dsRNA assessed as compound level per larva causing mortality after 12 hr
# Helicoverpa armigera [2] = test: Insecticidal activity against fenvalerate-resistant Helicoverpa armigera HDFR third-instar larvae injected with dsCYP6B7-313-1 dsRNA plus dsCyt-b5-4 dsRNA assessed as compound level per larva causing mortality after 12 hr
# Helicoverpa armigera [3] = test: Insecticidal activity against fenvalerate-resistant Helicoverpa armigera HDFR third-instar larvae injected with dsCYP6B7-313-1 dsRNA plus dsCPR-403-1 dsRNA assessed as compound level per larva causing mortality after 12 hr
# Helicoverpa armigera [4] = test: Insecticidal activity against fenvalerate-resistant Helicoverpa armigera HDFR third-instar larvae injected with dsCYP6B7-313-1 dsRNA assessed as compound level per larva causing mortality after 12 hr
# Helicoverpa armigera [5] = test: Insecticidal activity against fenvalerate-resistant Helicoverpa armigera HDFR third-instar larvae injected with TE buffer assessed as compound level per larva causing mortality after 12 hr
# Helicoverpa armigera [6] = test: Insecticidal activity against fenvalerate-resistant Helicoverpa armigera HDFR third-instar larvae without dsRNA injection assessed as compound level per larva causing mortality after 12 hr
# Helicoverpa armigera [7] = test: Resistance index, ratio of LD50 for fenvalerate-resistant Helicoverpa armigera HDFR third-instar larvae to LD50 for fenvalerate-susceptible Helicoverpa armigera third-instar larvae
# Helicoverpa armigera [8] = test: Insecticidal activity against fenvalerate-resistant Helicoverpa armigera HDFR third-instar larvae assessed as compound level per larva causing mortality after 48 hr
# Helicoverpa armigera [9] = test: Insecticidal activity against fenvalerate-susceptible Helicoverpa armigera third-instar larvae assessed as compound level per larva causing mortality after 48 hr
# Helicoverpa armigera [10] = test: Insecticidal activity against fenvalerate-resistant Helicoverpa armigera HDFR third-instar larvae injected with dsCYP6B7-313-1 dsRNA plus dsCPR-403-1 dsRNA and dsCyt-b5-4 dsRNA assessed as insect mortality at 4 to 16 ug/larva after 48 hr (fenvalerate alone control = 29.1 to 50.0%)
# Helicoverpa armigera [11] = test: Insecticidal activity against fenvalerate-resistant Helicoverpa armigera HDFR third-instar larvae injected with dsCYP6B7-313-1 dsRNA plus dsCyt-b5-4 dsRNA assessed as insect mortality at 4 to 16 ug/larva after 48 hr (fenvalerate alone control = 29.1 to 50.0%)
# Helicoverpa armigera [12] = test: Potency index, ratio of LD50 for fenvalerate-resistant Helicoverpa armigera HDFR third-instar larvae injected with TE buffer to LD50 for fenvalerate-resistant Helicoverpa armigera HDFR third-instar larvae injected with dsCYP6B7-313-1 dsRNA after 24 hr
# Helicoverpa armigera [13] = test: Insecticidal activity against fenvalerate-resistant Helicoverpa armigera HDFR third-instar larvae injected with dsCYP6B7-313-1 dsRNA plus dsCPR-403-1 dsRNA assessed as insect mortality at 4 to 16 ug/larva after 48 hr (fenvalerate alone control = 29.1 to 50.0%)
# Helicoverpa armigera [14] = test: Insecticidal activity against fenvalerate-resistant Helicoverpa armigera HDFR third-instar larvae injected with dsCYP6B7-313-1 dsRNA assessed as insect mortality at 4 to 16 ug/larva after 48 hr (fenvalerate alone control = 29.1 to 50.0%)
# Helicoverpa armigera [15] = test: Potency index, ratio of LD50 for fenvalerate-resistant Helicoverpa armigera HDFR third-instar larvae injected with TE buffer to LD50 for fenvalerate-resistant Helicoverpa armigera HDFR third-instar larvae injected with dsCYP6B7-313-1 dsRNA plus dsCPR-403-1 dsRNA and dsCyt-b5-4 dsRNA after 48 hr
# Helicoverpa armigera [16] = test: Potency index, ratio of LD50 for fenvalerate-resistant Helicoverpa armigera HDFR third-instar larvae injected with TE buffer to LD50 for fenvalerate-resistant Helicoverpa armigera HDFR third-instar larvae injected with dsCYP6B7-313-1 dsRNA plus dsCyt-b5-4 dsRNA after 48 hr
# Helicoverpa armigera [17] = test: Potency index, ratio of LD50 for fenvalerate-resistant Helicoverpa armigera HDFR third-instar larvae injected with TE buffer to LD50 for fenvalerate-resistant Helicoverpa armigera HDFR third-instar larvae injected with dsCYP6B7-313-1 dsRNA plus dsCPR-403-1 after 48 hr
# Helicoverpa armigera [18] = test: Potency index, ratio of LD50 for fenvalerate-resistant Helicoverpa armigera HDFR third-instar larvae injected with TE buffer to LD50 for fenvalerate-resistant Helicoverpa armigera HDFR third-instar larvae injected with dsCYP6B7-313-1 dsRNA after 48 hr
# Helicoverpa armigera [19] = test: Potency index, ratio of LD50 for fenvalerate-resistant Helicoverpa armigera HDFR third-instar larvae injected with TE buffer to LD50 for fenvalerate-resistant Helicoverpa armigera HDFR third-instar larvae injected with dsCYP6B7-313-1 dsRNA plus dsCPR-403-1 dsRNA and dsCyt-b5-4 dsRNA after 36 hr
# Helicoverpa armigera [20] = test: Potency index, ratio of LD50 for fenvalerate-resistant Helicoverpa armigera HDFR third-instar larvae injected with TE buffer to LD50 for fenvalerate-resistant Helicoverpa armigera HDFR third-instar larvae injected with dsCYP6B7-313-1 dsRNA plus dsCyt-b5-4 dsRNA after 36 hr
# Helicoverpa armigera [21] = test: Potency index, ratio of LD50 for fenvalerate-resistant Helicoverpa armigera HDFR third-instar larvae injected with TE buffer to LD50 for fenvalerate-resistant Helicoverpa armigera HDFR third-instar larvae injected with dsCYP6B7-313-1 dsRNA plus dsCPR-403-1 after 36 hr
# Helicoverpa armigera [22] = test: Potency index, ratio of LD50 for fenvalerate-resistant Helicoverpa armigera HDFR third-instar larvae injected with TE buffer to LD50 for fenvalerate-resistant Helicoverpa armigera HDFR third-instar larvae injected with dsCYP6B7-313-1 dsRNA after 36 hr
# Helicoverpa armigera [23] = test: Potency index, ratio of LD50 for fenvalerate-resistant Helicoverpa armigera HDFR third-instar larvae injected with TE buffer to LD50 for fenvalerate-resistant Helicoverpa armigera HDFR third-instar larvae injected with dsCYP6B7-313-1 dsRNA plus dsCPR-403-1 dsRNA and dsCyt-b5-4 dsRNA after 24 hr
smiles,measurement,setting,value
CC(C)C(C(=O)OC(C#N)c1cccc(Oc2ccccc2)c1)c1ccc(Cl)cc1 (stereo not drawn) [FENVALERATE],LD50,Helicoverpa armigera [1],12.6 µg
same,LD50,Helicoverpa armigera [2],19 µg
same,LD50,Helicoverpa armigera [3],16.8 µg
same,LD50,Helicoverpa armigera [4],23.9 µg
same,LD50,Helicoverpa armigera [5],46.8 µg
same,LD50,Helicoverpa armigera [6],48.8 µg
same,Ratio,Helicoverpa armigera [7],164
same,LD50,Helicoverpa armigera [8],16.13 µg
same,LD50,Helicoverpa armigera [9],0.0982 µg
same,mortality,Helicoverpa armigera [10],44.4%
same,mortality,Helicoverpa armigera [11],50%
same,Ratio,Helicoverpa armigera [12],1.8
same,mortality,Helicoverpa armigera [13],40.7%
same,mortality,Helicoverpa armigera [14],38.8%
same,Ratio,Helicoverpa armigera [15],3.2
same,Ratio,Helicoverpa armigera [16],3.1
same,Ratio,Helicoverpa armigera [17],2.4
same,Ratio,Helicoverpa armigera [18],2
same,Ratio,Helicoverpa armigera [19],3
same,Ratio,Helicoverpa armigera [20],2.6
same,Ratio,Helicoverpa armigera [21],2.9
same,Ratio,Helicoverpa armigera [22],1.6
same,Ratio,Helicoverpa armigera [23],3.5
